US10611742B2, “4-oxo-4,5-dihydrothiazole derivative, preparation method and use thereof” (Institute of Pharmacology and Toxicology Academy of …, priority 2015, dated 2020)

Experiments:
Type in all cases: cell-based
[1] = test system: enterovirus EV71 (SZ-98 strain); experiment: anti-EV71 activity, therapeutic effect on Vero cell (CPE inhibition, Celltiter Glo)
Procedure: (§1) Test principle: Vero cell, MRC-5 cell, and RD cell were used as host of virus, respectively, and samples were tested for their inhibition of cytopathic effect (CPE) caused by virus.
(§2) 1. Virus strain: enterovirus EV71 (SZ-98 strain, provided by Chinese Center for Disease Control and Prevention), Vero cell (provided by the Cell Bank of Chinese Academy of Sciences), MRC-5 cell (provided by the Cell Bank of Chinese Academy of Sciences), and RD cell (provided by the Cell Bank of Chinese Academy of Sciences), were subjected to passage culture, respectively, and stored at −80° C.
(§3) 2. Sample treatment: a test sample (Compounds 1-14 and positive control agent) was dissolved in dimethyl sulfoxide (DMSO) to prepare a stock solution, which was stored at −20° C. The stock solution was diluted with DMEM medium (Gibco Company) containing 2% fetal bovine serum (Gibco Company) to prepare a 100 μM solution before use, and was 3-fold diluted with the medium to obtain 8 diluted concentrates.
(§4) 3. Positive control agent: Con1 (pitstop2) (purchased from AmyJet Scientific Inc., Abcam), a broad-spectrum antiviral inhibitor.
(§5) 4. Test method: • 4.1 Therapeutic effect: the cells were seeded on a 96-well culture plate, and cultured in a 5% CO2, 37° C. incubator for 24 h. About 100 TCID50 enterovirus EV71 was added to each well. After adsorption at 37° C. for 1 h, the virus solution was discarded, and a drug was added at different diluted concentrates, respectively. Meanwhile, virus control and cell control were set, and cultured at 37° C. […] The virus-inhibition rate of a sample at each concentration was calculated based on the chemiluminescent value, the sample concentration was used as abscissa, and the inhibition rate was used as ordinate, and S-Curve fitting was performed by using Origin software. Half maximal inhibitory concentration (IC50) of each sample for enterovirus EV71 was calculated based on the fitting results. Median toxic concentration (TC50) was determined by the same method. […] To each well, a drug was added at a different diluted concentration, then the cells were cultured at 37° C. for 2 h, and then the drug was discarded. About 100 TCID50 enterovirus EV71 was added to each well, adsorbed at 37° C. for 1.5 h, then the virus solution was discarded, and a maintenance medium free of drug was added. Meanwhile, virus control and cell control were set, and cultured at 37° C. […] The virus-inhibition rate of a sample at each concentration was calculated, and half maximal inhibitory concentration (IC50), median toxic concentration (TC50), and selection index (SI) of each sample for enterovirus EV71 were calculated. The methods for determining and calculating them were as described in Item 4.1

[2] = test system: enterovirus EV71 (SZ-98 strain); experiment: anti-EV71 activity, therapeutic effect on MRC-5 cell (CPE inhibition, Celltiter Glo); details: MRC5
Procedure: as §1, §2, §3, §4, §5

[3] = test system: enterovirus EV71 (SZ-98 strain); experiment: anti-EV71 activity, therapeutic effect on RD cell (CPE inhibition, Celltiter Glo)
Procedure: as §1, §2, §3, §4, §5

[4] = test system: enterovirus EV71 (SZ-98 strain); experiment: anti-EV71 activity, preventive effect on Vero cell (CPE inhibition)
Procedure: as §1, §2, §3, §4, §5

[5] = test system: enterovirus EV71 (SZ-98 strain); experiment: anti-EV71 activity, preventive effect on RD cell (CPE inhibition)
Procedure: as §1, §2, §3, §4, §5

[6] = median toxic concentration on Vero cell; details: African green monkey, Vero cells; for CC50 at 2 h: Table 2-1 (preventive effect), read-out: TC50; for CC50: Table 1-1 (therapeutic effect), read-out: TC50 (the source's name)
Procedure: as §2, §3, §5

Vero cell = experiment: median toxic concentration on Vero cell
Procedure: as §2, §3, §5

[7] = median toxic concentration on MRC-5 cell; details: human, MRC-5 cells, Table 1-2 (therapeutic effect), read-out: TC50 (the source's name)
Procedure: as §2, §3, §5

[8] = median toxic concentration on RD cell; details: human, RD cells; for CC50: read-out: TC50 (the source's name); for CC50 at 2 h: Table 2-2 (preventive effect), read-out: TC50
Procedure: as §2, §3, §5

[9] = test system: clathrin-mediated endocytosis of transferrin; experiment: inhibition of clathrin-mediated endocytosis of transferrin in HeLa cells (fluorescence microscope); details: for inhibitory effect on endocytosis of transferrin (in words): 1.25 to 40 μmol/L; for inhibition at 20 µM: Homo sapiens, 20 μM compound, read-out: Inhibition rate
Procedure: 1. Experiment principle: transferrin was a key protein for clathrin-mediated endocytosis. Therefore, by determining the effect of a compound on transferrin in HeLa cell, the inhibitory effect of the compound on clathrin-mediated endocytosis could be evaluated. 2. Sample treatment: a test compound was dissolved in DMSO to prepare a stock solution, which was stored at −20° C. The stock solution was diluted with HEPES buffer (25 mm HEPES, 20 mm Glucose, 1% BSA, sterile water) to prepare a solution with an initial concentration of […] before use, and was 2-fold diluted with the buffer to obtain 6 diluted concentrations from 1.25 to 40 μmol/L. 4. Test method: HeLa cells (provided by the Cell Bank of Chinese Academy of Sciences) were seeded on a 24-well culture plate coated with 0.1 mg/ml polylysine, a serum-free medium DMEM (Gibco Company) was added at 500 μl/well, and the cells were cultured for one night. To each well, 0.5 μl a test compound at a different diluted concentration or 0.1 v/v % DMSO was added, then the pretreatment was performed for 15 min, and then 20 μg/ml alexa^568 transferrin (2 μl) (TF, SIGMA-ALDRICH Company) was added, and the incubation was carried out at 37° C. for 15 min. The resultant mixture was then washed with Live Cell Imaging Solution (LCIS, Invitrogen Company) and an acid at a low pH ([…] NaCl solution containing 0.5% acetic acid) for 30 s, respectively, followed by fixing with cold methanol, and was observed under fluorescence microscope.

[10] = EV71 (SZ-98 strain), therapeutic effect on Vero cell, read-out: IC50

IC50 [1, 10]	IC50 ([3]; EV71 (SZ-98 strain))	IC50 [4]	IC50 [5]	IC50 ([1]; Enterovirus, EV71, Vero cell, read-out: activity (IC50))	IC50 ([3]; Enterovirus, EV71)	Structure (SMILES)	IC50 [2]	anti-EV71 activity (in words) [3]	CC50 at 2 h [6]	TC50 (Vero cell; Table 1-1 (therapeutic effect))	CC50 [7]	CC50 ([8]; Table 1-3 (therapeutic effect))	CC50 at 2 h [8]	CC50 [6]	endocytosis of transferrin at 20 μM (in words) [9]	inhibitory effect on endocytosis of transferrin (in words) [9]	inhibition at 20 µM [9]	toxicity compared with the positive control agent (in words) (Vero cell)	CC50 [8]
> 200 µM	22.2 µM	≥ 22.2 µM	200 µM	–	–	O=C1N=C(NS(=O)(=O)c2cccc3ccccc23)S/C1=C\c1ccc(C(=O)O)cc1 [Compound 5, Naphthalene-1-sulfonic acid [5-(4-carboxy-benzylidene)-4-oxo-4,5-dihydro-thiazol-2-yl] amide]	> 200 µM	better anti-EV71 activity	200 µM	200 µmol/L	> 200 µM	> 200 µM	> 200 µM	–	–	–	–	–	–
> 7.41 µM	> 7.41 µM	> 7.41 µM	5.14 µM	–	–	O=C1N=C(NS(=O)(=O)c2cccc3ccccc23)S/C1=C\c1ccc(F)cc1Cl [Compound 10, Naphthalene-1-sulfonic acid [5-(2-chloro-4-fluoro-benzylidene)-4-oxo-4,5-dihydro-thiazol-2-yl] amide]	> 7.41 µM	–	10.7 µM	–	12.8 µM	15.4 µM	15.4 µM	10.7 µM	completely inhibited	dose-dependent	100%	–	–
5.14 µM	7.41 µM	> 7.41 µM	> 7.41 µM	5.14 µM	7.41 µM	CCN(CC)c1ccc(/C=C2\SC(NS(=O)(=O)c3cccc4ccccc34)=NC2=O)c(O)c1 [Compound 3, Naphthalene-1-sulfonic acid [5-(2-hydroxy-4-diethylamino-benzylidene)-4-oxo-4,5-dihydro-thiazol-2-yl] amide]	> 7.41 µM	better anti-EV71 activity	12.8 µM	–	12.8 µM	–	12.8 µM	12.8 µM	completely inhibited	dose-dependent	100%	a lower toxicity than the positive control agent	12.8 µM
